Holding throughout (experiment): Competitive assay with nitrocefin (RSAI)
One experiment has as its target OXA-1 (Escherichia coli, UniProt P13661). Format: biochemical, E. coli 1527E. Details: the beta-lactamase has to be extracted from the cells for the purpose of the present invention; made in house; host or cells: E. coli 1527E according to the earlier reading (crude cell extract).
A further experiment concerns the target TEM-1 (Escherichia coli, UniProt P62593). In kind it is biochemical, E. coli 2136E. More on the design: the beta-lactamase has to be extracted from the cells for the purpose of the present invention; made in house; host or cells: E. coli 2136E (plasmid-bearing strain; crude cell extract).
The target of another experiment is OXA-2 (Escherichia coli, UniProt P0A1V9). In kind it is biochemical, E. coli R46. Details: the beta-lactamase has to be extracted from the cells for the purpose of the present invention; made in house; host or cells: E. coli carrying R46 according to the earlier reading (crude cell extract).
A further experiment has as its target OXA-3 (Pseudomonas aeruginosa, UniProt Q51429). In kind it is biochemical, E. coli R57B. Details: Normally, therefore, the beta-lactamase has to be extracted from the cells for the purpose of the present invention; endogenous in cells.
In a further experiment the target is PSE-2 (Pseudomonas aeruginosa, UniProt P14489). In kind it is biochemical, Ps.aerug. 1973E. Details: Normally, therefore, the beta-lactamase has to be extracted from the cells for the purpose of the present invention; endogenous in cells.
The target of the next experiment is TEM-2 (Escherichia coli, UniProt P62593, Q37K). Format: biochemical, E. coli 1725E. The source says: (§1) It is convenient to express the results in terms of a Relative Substrate Affinity Index (RSAI) value.
(§2) RSAI = Concentration of competing substrate which gives 50% inhibition of ring-opening hydrolysis of the chromogenic substrate
(§3) Concentration of chromogenic substrate in the assay A high RSAI value therefore indicates a low affinity of the beta-lactamase for that competing substrate, and therefore predicts resistance of a beta-lactam competing substrate to hydrolysis by the beta-lactamase. Low RSAI values, in contrast, predict sensitivity to hydrolysis by a beta-lactamase.
(§4) Beta-lactam antibiotics which bind to the TEM-2 enzyme compete with nitrocefin in the assay. […] . This concentration of ampicillin is a direct estimate of the relative affinity of the TEM-2 enzyme for ampicillin. […] . The RSAI value was therefore 1.3.

Another experiment concerns K1073. In kind it is biochemical, Klebsiella 1073.
Text: as §1, §2, §3, §4

The next experiment has as its target PSE-1 (Pseudomonas aeruginosa, UniProt Q03170). Format: biochemical, Ps.aerug. 1937E. More on the design: Normally, therefore, the beta-lactamase has to be extracted from the cells for the purpose of the present invention; endogenous in cells.
The subject of another experiment is PSE-3. Format: biochemical, Ps.aerug. 1920E.
For the next experiment, the system named is K10317. Format: biochemical, K.aerog. 10317.
Text: as §1, §2, §3, §4

Experiment [1] addresses T1, Chromosomal, induced beta-lactamase enzyme (Pseudomonas aeruginosa, UniProt P24735).
T1 construct: Normally, therefore, the beta-lactamase has to be extracted from the cells for the purpose of the present invention; endogenous in cells; host or cells: Pseudomonas aeruginosa 1937E grown with ampicillin
In kind it is biochemical, Ps.aerug. 1937E + ampicillin.

The next experiment concerns the target SHV-1 (Escherichia coli, UniProt P0AD63). In kind it is biochemical, E. coli 2008E. More on the design: the beta-lactamase has to be extracted from the cells for the purpose of the present invention; made in house; host or cells: E. coli 2008E (crude cell extract).
Experiment [2] has as its target T2, Chromosomal, constitutive beta-lactamase enzyme (Enterobacter cloacae, UniProt P05364).
T2 construct: Normally, therefore, the beta-lactamase has to be extracted from the cells for the purpose of the present invention; endogenous in cells
In kind it is biochemical, E. cloacae.

Another experiment deals with HMS-1. Format: biochemical, E. coli 1946.
In a further experiment the test system is K17. Format: biochemical, Klebsiella 17.
Text: as §1, §2, §3, §4

The target in experiment [3] is Chromosomal, hyper-induced beta-lactamase enzyme (Escherichia coli, UniProt P00811). Format: biochemical, E. coli SNU35. Details: Normally, therefore, the beta-lactamase has to be extracted from the cells for the purpose of the present invention; endogenous in cells; host or cells: E. coli SNU 35 (artificially produced strain).
Another experiment concerns the target PSE-4 (Pseudomonas aeruginosa, UniProt P16897). In kind it is biochemical, Ps.aerug. 1559E. Details: Normally, therefore, the beta-lactamase has to be extracted from the cells for the purpose of the present invention; endogenous in cells.

Structures are written as SMILES. Marks after values point to notes of the source that are not given here.

With `CO/N=C(\C(=O)N[C@@H]1C(=O)N2C(C(=O)O)=C(CSc3nc(=O)c(=O)[nH]n3C)CS[C@H]12)c1csc(N)n1` [RO-13 9904], the RSAI on OXA-1 is listed as 0.9; on TEM-1, 400; on OXA-2 it was 10; on OXA-3, 3; on PSE-2, 0.76; on TEM-2, 600. Also, the RSAI in the experiment on K1073 is 116; on PSE-1, 14; in the experiment with PSE-3, 36; with K10317 it was 74; in experiment [1] it was 38; on SHV-1 it was 160. For the same compound, the RSAI in experiment [2] is 0.0003*; with HMS-1 it was 14; in the experiment with K17, 4; in experiment [3], 0.01; on PSE-4 it was 42.
Regarding `CC1(C)S[C@@H]2[C@H](NC(=O)[C@H](NC(=O)N3CCN(S(C)(=O)=O)C3=O)c3ccccc3)C(=O)N2[C@H]1C(=O)O` [Mezlo-cillin, Mezlocillin], the RSAI was determined as 1.9 at OXA-1; 3.6 at TEM-1; 19.4 at OXA-2; 19.2 on OXA-3; 4.75 at PSE-2; 6.3 on TEM-2. The RSAI in the experiment with K1073 amounted to 5.5; on PSE-1, 1.2; in the experiment with PSE-3, 0.8; in the experiment on K10317, 16.4; in [1], 0.26; on SHV-1, 3. Further, the RSAI is 0.4 in [2]; 0.9 in the experiment on HMS-1; 1.3 in the experiment on K17; 0.3 in experiment [3]; 0.9 at PSE-4.
As for `CO/N=C(\C(=O)N[C@@H]1C(=O)N2C(C(=O)O)=C(COC(N)=O)CS[C@H]12)c1ccco1` [Cefuroxime], the RSAI was determined as 10 at OXA-1; 50 on TEM-1; 3.6 at OXA-2; 0.003 at OXA-3; 1.7 at PSE-2; 40 at TEM-2. For the same compound, the RSAI was 12 in the experiment on K1073; 50 at PSE-1; 12 with PSE-3; 14 with K10317; 0.0001 in experiment [1]; 20 at SHV-1. Also, the RSAI in experiment [2] is recorded as 0.0002; in the experiment on HMS-1, 16; in the experiment on K17, 2.3; in experiment [3] it was 0.002; at PSE-4, 34.
With `CC1(C)S[C@@H]2[C@H](NC(=O)Cc3ccccc3)C(=O)N2[C@H]1C(=O)O` [Peni-cillin G, Penicillin G], the RSAI on OXA-1 was 0.2; at TEM-1 it was 3; on OXA-2, 0.6; at OXA-3, 0.4; at PSE-2 it was 0.2; on TEM-2, 1. In addition, the RSAI is reported as 2 in the experiment on K1073; 0.6 at PSE-1; 0.3 in the experiment on PSE-3; 2.2 in the experiment on K10317; 0.13 in experiment [1]; 1 on SHV-1. Besides, the RSAI in [2] is recorded as 0.08; with HMS-1, 0.5; in the experiment with K17, 1.2; in [3] it was 0.18; at PSE-4 it was 0.48.
Turning to `CC1(C)S[C@@H]2[C@H](NC(=O)[C@H](NC(=O)N3CCNC3=O)c3ccccc3)C(=O)N2[C@H]1C(=O)O` [Azlo-cillin, Azlocillin], the RSAI turned out to be 1.4 at OXA-1; 1 at TEM-1; 19 on OXA-2; 9 at OXA-3; 2.64 at PSE-2; 1.1 on TEM-2. Moreover, the RSAI came out at 1.9 with K1073; 0.23 on PSE-1; 0.54 in the experiment with PSE-3; 3 in the experiment on K10317; 0.05 in [1]; 1.6 on SHV-1. For the same compound, the RSAI in experiment [2] was determined as 0.05; in the experiment with HMS-1, 0.42; with K17, 1.1; in [3], 0.02; on PSE-4, 0.36.
Regarding `CO/N=C(\C(=O)N[C@@H]1C(=O)N2C(C(=O)O)=CCS[C@H]12)c1csc(N)n1` [Cefti-zoxime, ceftizoxime], the RSAI at OXA-1 was determined as 50; at TEM-1 it was 1000; at OXA-2, 110; on OXA-3, 200; at PSE-2, 128; at TEM-2, 1000. Also, the RSAI was found to be 720 in the experiment with K1073; 360 at PSE-1; 120 in the experiment on PSE-3; 630 with K10317; 500 in [1]; 1400 on SHV-1. The RSAI stood at 0.1 in experiment [2]; 66 in the experiment on HMS-1; 220 with K17; 1.7 in experiment [3]; 380 at PSE-4.
`CC1(C)[C@H](C(=O)O)N2C(=O)C[C@H]2S1(=O)=O` [CP 45,899]: the RSAI on OXA-1 is listed as 8*; at TEM-1 it was 0.02; at OXA-2 it was 0.15*; at OXA-3, 0.05*; at PSE-2, 16; on TEM-2, 0.04*. For the same compound, the RSAI is recorded as 0.18 with K1073; 0.036 at PSE-1; 0.0014 in the experiment with PSE-3; 0.08 in the experiment on K10317; 2.5* in [1]; 0.018* at SHV-1. The RSAI in experiment [2] is on record as 6.5*; in the experiment with HMS-1 it was 0.025*; with K17 it was 0.5; in experiment [3] it was 1.7*; at PSE-4 it was 0.015*.
